Source: patent publication US4840941A, “Method for inhibiting infection of human T-cells” (Kabushiki Kaisha Ueno Seiyaku Oyo Kenkyujo, priority 1986, dated 1989)

Assays:
[1] = test system: reverse transcriptase (authentic sample) derived from Avian Myeloblastosis Virus; test: Inhibition of reverse transcriptase activity (AMV); assay type: biochemical; settings: AMV enzyme; 1, 0.1 and 0.01 μg/ml
Protocol: Test substances were assayed for inhibition against the enzyme activity of reverse transcriptase (authentic sample) derived from Avian Myeloblastosis Virus (abbrev. AMV), a kind of retrovirus. Five microliters of […] (template RNA), 4 μl of (dT)12-18 (primer DNA), and 1 μl of water were mixed with 5 μl of 0.5M Tris-CHl (pH 8.4) including 0.1% triton X-100, 5 μl of […], 5 μl of 20 mM-DDT, 5 μl of water, and [^3 H]-TTP (tritium labeled thymidine triphosphate). To this mixture, test substances in solutions (final concentrations: 1, 0.1, and 0.01 μg/ml, 5 μl) or buffer solutions (control, 5 μl) at various doses were added. Then, 5 μl (one unit) of the authentic reverse transcriptase derived from AMV was added and the reaction mixture was incubated at 37° C. for 30 minutes. The reaction was stopped by addition of trichloroacetic acid, and after filtering the reaction mixture, the radioactivity of the polymerized (^3 H-T)n retained on the filter was measured using a liquid scintillation counter. As the test substances, sodium dextran sulfate (molecular weight: 5000), same (molecular weight: 8000), same (molecular weight: 500000), fucoidin, κ-carrageenan, λ-carrageenan, and .iota.-carrageenan were used.
The effects of the test substances on the reverse transcriptase activity of AMV were evaluated by the method described in Example 1.

[2] = test system: HTLV-III; test: Anti-AIDS activity, infected cell rate of MT-4 cells infected with HTLV-III at 6th day; assay type: cell-based; settings: for anti-AIDS virus activity: MT-4 cells, HTLV-III
Protocol: (§1) To MT-4 cells (30×10^4 /ml) cultured in RPMI-1640 medium containing 10% bovine serum, was inoculated HTLV-III, and the suspension was incubated at 37° C. for 1 hour to cause the adsorption of the virus. The cell:virus ratio was 500:1. The cells were then washed, and cultured with or without various doses of the test substances (same as those of Example 1) at 37° C. under 5% CO2 for 3 days, after which cell growth, viability, and percentage of infected cells were recorded. The infected cells were distinguished from the uninfected cells by indirect immuno-fluorescence method. Thus; the cultured cells were fixed with cold methanol on a slide glass, reacted with antibody to the HTLV-III-specific antigens, and further with the secondary antibody (having fluorescent label). The results are shown in FIGS. 9-29, wherein, , and show the controls without virus; , and show the infection experiments with HTLV-III. The cell growth is indicated in number of cells, the viability (%) in number of viable cells×100/number of total cells, and the infected cell rate (%) in number of fluorescent-positive cells×100/number of total cells.
In order to examine the correlation between the anti-AIDS virus activity and the molecular structure (especially, molecular weight and S-content or number of sulfate group in this case) of various test substances including those used in Examples 1-7, the anti-AIDS activities were evaluated for the various naturally occurring polysaccharides, polysaccharides having sulfate group, mucopolysaccharides, mucopolysaccharide sulfate, and mucopolysaccharide polysulfate. Further, similar experiments were carried out with various other sulfates which were synthetically obtained. The experimental procedures employed are identical to that in preceding experiments. The cultured MT-4 cells were infected with HTLV-III and the inhibitory effects of various test subsutances on the infected cell rate (number of fluorescent cell×100/ total cell, %) were determined at 6th day.

[3] = test system: HTLV-III; test: Anti-AIDS virus activity, MT-4 cells infected with HTLV-III, 3 days; assay type: cell-based; settings: increasing dose
Protocol: as §1
Test substances were assayed for the anti-AIDS virus activity in the same manner as in Example 3 using cell culture. The test substances are the same as those used in Example 5. […]
The anti-AIDS virus activity of heparin was evaluated in the same manner as in Example 3. […]

[4] = Acute toxicity (LD50) in mice; assay type: in vivo
[5] = test system: reverse transciptase of simian sarcoma virus; settings: in vitro; Cancer Research, 38, 2401-2407; cited from earlier work
[6] = test system: DNA polymerase of phytohemagglutinin stimulated human lymphocytes; settings: in vitro; Cancer Research, 38, 2401-2407; cited from earlier work
[7] = test system: disrupted HTLV-III virions as a crude reverse transcriptase; test: Inhibition of reverse transcriptase activity (disrupted HTLV-III virions); assay type: biochemical; settings: crude enzyme from HTLV-III virions
[8] = 10 μg/ml, 6th day, control 100%
[9] = 100 μg/ml, 6th day, control 100%

Substance	reverse transcriptase inhibition activity [1]	Infected cell (%) [2, 8] [%]	Infected cell (%) [2, 9] [%]	anti-AIDS virus activity ([2]; 6th day)	cell growth and viability of MT-4 cells infected with HTLV-III [3]	infected cell rate ([3]; indirect immunofluorescence)	acute toxicity (LD50) ([4]; intravenously)	inhibition of reverse transcriptase of simian sarcoma virus [5]	inhibition of DNA polymerase of phytohemagglutinin stimulated human lymphocytes [6]	reverse transcriptase inhibitory effect [7]	Infected cell (%) ([2]; 10 μg/ml, 6th day; control 100%; S-content 17-20), 8640 min)	acute toxicity (LD50) ([4]; orally)
Chondroitin polysulfate	stronger activity than the natural substances	3	1	particularly strong anti-AIDS virus activities								
Heparin		41	1	particularly strong anti-AIDS virus activities	the number of cells and viability were maintained to that of control	less susceptible to the viral infection	1,500-2,000 mg/kg	inhibit	inhibit			
Sodium dextran sulfate [Sodium dextran sulfate (molecular weight: 7000-8000, S-conte]			0				4,500 mg/kg			has an inhibitory effect	1	21,000 mg/kg
